The text below walks through data of publication PMC2810100 (Journal of medicinal chemistry, 2009).

For one assay, the target named is T1, recombinant CpIMPDH (Cryptosporidium parvum, UniProt Q8T6T2).
T1 sequence (Q8T6T2 1-400): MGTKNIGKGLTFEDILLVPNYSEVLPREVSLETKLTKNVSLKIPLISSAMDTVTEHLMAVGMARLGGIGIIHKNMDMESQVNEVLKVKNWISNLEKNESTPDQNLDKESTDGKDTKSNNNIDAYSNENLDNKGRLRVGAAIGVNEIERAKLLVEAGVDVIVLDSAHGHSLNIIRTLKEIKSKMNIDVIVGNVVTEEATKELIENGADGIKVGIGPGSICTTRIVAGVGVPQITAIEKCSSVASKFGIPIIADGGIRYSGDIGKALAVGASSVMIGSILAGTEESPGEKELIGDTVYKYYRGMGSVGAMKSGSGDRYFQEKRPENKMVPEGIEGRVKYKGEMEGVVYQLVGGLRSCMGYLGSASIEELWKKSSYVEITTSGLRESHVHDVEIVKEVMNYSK
The class given is biochemical. The note with it: without BSA.

The next assay has as its system CpIMPDH. The note with it: cited from earlier work.

In the case of `C[C@@H](Oc1ccnc2ccccc12)c1cn(-c2ccc(Cl)c(Cl)c2)nn1` [Compound 32, (R)-4-(1-(1-(3,4-dichlorophenyl)-1H-1,2,3-triazol-4-yl)ethoxy)quinoline], the “Fold more potent than the (S)-enantiomer (33)” value at recombinant CpIMPDH was ~ 14 fold. Turning to `CC(Oc1ccccc1)C(=O)Nc1ccc(Cl)cc1` (stereo not drawn) [Compound 5], in the assay with CpIMPDH, the “Mode of inhibition with respect to 1 (IMP)” value is reported as “uncompetitive inhibition” and the “Mode of inhibition with respect to NAD+” value is “noncompetitive (mixed) inhibition”.
